The test system of one test is A. fumigatus. The test can be described thus: Antifungal susceptibility assay (broth microdilution MIC). It is filed as cell-based. To be noted: Aspergillus fumigatus; A. fumigatus strain ATCC MYAA 3626, 35 °C, 48 h, no observable growth.
For the next test, the system named is A. nidulans. Described as above. Format: cell-based. To be noted: Aspergillus nidulans, 35 °C, 48 h, no observable growth.
In a further test the test system is A. niger. Described as above. It is filed as cell-based. The note with it: Aspergillus niger, 35 °C, 48 h, no observable growth.
The test system of a further test is A. flavus. The description is as above. It is filed as cell-based. To be noted: Aspergillus flavus, 35 °C, 48 h, no observable growth.
Test [1] deals with CaAHAS (C. albicans AHAS). Details: method as in earlier work. The note with it: shown for comparison; ref 13 (Garcia et al.); cited from earlier work.

Structures are written as SMILES.

With `CCOc1nc(F)cc2nc(S(=O)(=O)Nc3c(Cl)cccc3C(=O)OC)nn12` [CSM], the MIC in the test with A. fumigatus, in the test on A. nidulans, against A. niger and against A. flavus was above 100 µg/mL in each case. Besides, in test [1], the Ki was 4.6 ± 1.2 nM.

Regarding `COc1cc(OC)n2nc(NS(=O)(=O)c3c(C(F)(F)F)ccnc3OC)nc2n1` [PYS], the MIC in the test with A. fumigatus, against A. nidulans, in the test on A. niger and with A. flavus was above 100 µg/mL each time. In addition, in test [1], the Ki is 212 ± 18 nM.

As to `COC(=O)c1csc(C)c1S(=O)(=O)NC(=O)n1nc(OC)n(C)c1=O` [TCM], the MIC in the test with A. fumigatus, in the test on A. nidulans, in the test with A. niger and with A. flavus was above 100 µg/mL throughout. Besides, the Ki in test [1] is 28000 nM.
